Non-standard residues stand in square brackets, D forms with d. Residues, ends and D or L forms follow the SMILES beside them.
Test system: pituitaries removed from 20 day old female rats
Assay: In vitro growth hormone release study (incubated rat pituitaries, GH radioimmunoassay of the medium)
Assay type: cell-based, rats (CD-1 strain)
Conditions: two pituitaries in 1 ml lactated Ringer's, 36° C., ± SEM
Procedure: Female rats of the CD-1 strain were housed in a constant temperature room at 24° C. with 14 hours light and 10 hours darkness. The rats were fed Purina brand rat chow ab libitum. All studies were started between 0800 and 1000 hours. Pituitaries were removed from 20 day old female rats. Two pituitaries were incubated at 36° C. in 1 ml of lactated Ringer's solution in 10 ml polytetrafluoroethylene beakers in a Dubnoff Shaker (90 cycles/min.). The pituitaries were incubated a total of 4 hours (P1, P2, I3, and I4). After two successive one hour preincubation periods (P1, P2), the peptide was added to the incubation medium hourly for 2 hours (I3, I4). This in vitro study was performed in triplicate and a standard radioimmunoassay of growth hormone present in the incubation medium was performed in duplicate. The hormonal activity was calculated as the difference (Δ) of growth hormone (GH) levels between I3, I4 and P2, i.e., (I3 -P2) and (I4 -P2). P values were calculated by Students' t test using six growth hormone values for each value recorded. The growth hormone radioimmunoassay reagents were distributed by the National Institute of Arthritis and Metabolite Disease Division (NIAMDD) program. The growth hormone values were calculated in terms of nanograms (ng) of a rat standard with a growth hormone potency of 0.61 units/mg.

NC(=O)[C@H](Cc1ccccc1)NC(=O)[C@@H](Cc1c[nH]c2ccccc12)NC(=O)[C@H](N)Cc1c[nH]c2ccccc12 [H2 N--D-Trp--D-Trp--Phe--CONH2, H2 N-D-Trp-D-Trp-Phe-CONH2] (H-[dW]-[dW]-Phe-NH2)
In vitro growth hormone release (ΔGH, I3-P2 and I4-P2) (0.3μg peptide, P Value ~0.02): 592 ± 237 ng.increment.GH/ml incubation | In vitro growth hormone release (ΔGH, I3-P2 and I4-P2) (1μg peptide, P Value <0.001): 943 ± 137 ng.increment.GH/ml incubation | In vitro growth hormone release (ΔGH, I3-P2 and I4-P2) (10μg peptide, P Value <0.001): 1263 ± 293 ng.increment.GH/ml incubation | In vitro growth hormone release (ΔGH, I3-P2 and I4-P2) (100μg peptide, P Value <0.01): 635 ± 165 ng.increment.GH/ml incubation

Source: patent US4228156A, “Synthetic peptides having pituitary growth hormone releasing activity” (Beckman Instruments, Inc., priority 1979, dated 1980)
